Measurements reported in patent US20230295159A1, “ATX INHIBITOR, AND PREPARATION METHOD THEREFOR AND USE THEREOF” (SUZHOU ARK BIOPHARMACEUTICAL CO., LTD., priority 2020, published 2023).
Like-named read-outs stand apart in the source and are kept apart here. Blank lines part the entries; values can stand above or below the compound they belong to.

Legend:
[1] = target: ATX enzyme (Homo sapiens (Human), UniProt Q13822); assay: ATX enzyme activity inhibition assay; type: biochemical; settings: 16:0-LPC substrate, Amplex UltraRed fluorescence
Experimental: The tested compounds were dissolved with dimethyl sulfoxide (DMSO) to prepare 20 mM of stock solutions, the stock solutions were subjected to 4-fold gradient dilutions with DMSO, with the initial concentration of 20 µM and a total of 8 concentration gradients. 20 nL of diluted compound was transferred to a 384-well plate using Echo 550 and 5 µL of ATX enzyme solution formulated with 4 × Tris-HCl reaction buffer to the well, then the 384-well plate was centrifuged at 1000 rpm for 1 min and […] pre-incubated at room temperature for 15 min. Subsequently, 5 µL of 16:0-LPC foumulated with the above 4 × reaction buffer and 10 µL of assay solution containng 2 × Amplex UltraRed reagent, choline oxidase and horseradish peroxidase (HRP) foumulated with the same reaction buffer were added to each well, then the 384-well plate was centrifugated at 1000 rpm for 1 min. The fluorescence signals were read at an excitation wavelength of 530 nm and an emission wavelength of 590 nm by Synergy 2 microplate reader. The inhibition rate of the compound against enzyme reaction was calculated according to the fluorescence intensity ratio, and IC50 of the compound was analysed and calculated by GraphPad Prism 5 software.

[2] = test system: Chinese hamster ovary cells (CHO-WBL); assay: In vitro micronucleus assay with Chinese hamster ovary cells
Experimental: In the major micronucleus assay, CHO-WBL cells were exposed to at least 3 concentrations of the test object, while vehicle control group and positive control group were set up, with 2 replicated wells for each dose group. In inactivated test system, the administration lasted for 3 and 24 hours, and in S9 activated test system, the exposure to the test object lasted for 3 hours.
When choosing the highest dose for micronucleus frequency assay, the cytotoxicity of dose group of the test object should not substantially exceed 50% of that of the corresponding vehicle control group.
On the premise that the test is valid, the test results are evaluated according to the following criteria:
If the test object simutaneously meets the following criteria, it can be considered as positive:
A significant increase in micronucleus frequency is observed in one or more concentration groups.
If none of the above three points is met, the test object can be considered as negative.

[3] = Rat pharmacokinetic study; type: in vivo, SD rat; settings: for half-life: read-out: t½ (converted)
Experimental: SD rat pharmacokinetic study was performed on several compounds in Examples of the present disclosure through a single intravenous injection (IV, at a dose of 2 mg/kg) and a single oral administration (PO, at a dose of 10 mg/kg), and blood samples were taken before administration and 5 min, 15 min, 30 min, 1 h, 2 h, 4 h, 8 h, 12 h and 24 h after administration, respectively, to determine the plasma concentration of the compound for assay. The pharmacokinetic data of control compound and the compounds in Examples 17, 26, 28 and 29 of the present disclosure in rat plasma are shown in Tables 4-8.

[4] = 3-hour administration with metabolic activation, 5 µg/ml

- IC50 [1]: 13 nM
SMILES: CCc1nc2ccc(-c3cnc(CC(=O)N4CC[C@@H](O)C4)cn3)cn2c1N(C)c1nc(-c2ccc(F)cc2)c(C#N)s1 [Example 13, (R)-2-((2-ethyl-6-(5-(2-(3-hydroxypyrrolidin-1-yl)-2-oxoethyl)pyrazin-2-yl)imidazo[1,2-a]pyridin-3-yl)(methyl)amino)-4-(4-fluorophenyl)thiazole-5-carbonitrile]

- IC50 [1]: 48 nM
SMILES: CCc1nc2ccc(-c3ccc(CC(=O)N4CC(O)C4)nn3)cn2c1N(C)c1nc(-c2ccc(F)cc2)c(C#N)s1 [Example 5, 2-((2-ethyl-6-(6-(2-(3-hydroxyazetidin-1-yl)-2-oxoethyl)pyridazin-3-yl)imidazo[1,2-a]pyridin-3-yl)(methyl)amino)-4-(4-fluorophenyl)thiazole-5-carbonitrile]

- IC50 [1]: 11 nM
SMILES: CCN(c1nc(-c2ccc(F)cc2)c(C#N)s1)c1c2nc(-c3cnc(N4CCCCS4(=O)=O)nc3)ccc2nn1CC [Example 21, 2-((5-(2-(1,1-dioxido-1,2-thiazinan-2-yl)pyrimidin-5-yl)-2-ethyl-2H-pyrazolo[4,3-b]pyridin-3-yl)(ethyl)amino)-4-(4-fluorophenyl)thiazole-5-carbonitrile]

- IC50 [1]: 30 nM
SMILES: CCc1nc2ccc(-c3ccc(CC(=O)N4CC(O)C4)cc3)cn2c1N(C)c1nc(-c2ccc(F)cc2)c(C#N)s1 [Example 1, 2-((2-ethyl-6-(4-(2-(3-hydroxyazetidin-1-yl)-2-oxoethyl)phenyl)imidazo[1,2-a]pyridin-3-yl)(methyl)amino)-4-(4-fluorophenyl)thiazole-5-carbonitrile]

- IC50 [1]: 18 nM
SMILES: CCc1nc2ccc(-c3ncc(CC(=O)N4CC(O)C4)cc3F)cn2c1N(C)c1nc(-c2ccc(F)cc2)c(C#N)s1 [Example 10, 2-((2-ethyl-6-(3-fluoro-5-(2-(3-hydroxyazetidin-1-yl)-2-oxoethyl)pyridin-2-yl)imidazo[1,2-a]pyridin-3-yl)(methyl)amino)-4-(4-fluorophenyl)thiazole-5-carbonitrile]

- IC50 [1]: 29 nM
SMILES: CCc1nc2ccc(-c3ccc(CC(=O)N4CC(O)C4)nc3)cn2c1N(C)c1nc(-c2ccc(F)cc2)c(C#N)s1 [Example 2, 2-((2-ethyl-6-(6-(2-(3-hydroxyazetidin-1-yl)-2-oxoethyl)pyridin-3-yl)imidazo[1,2-a]pyridin-3-yl)(methyl)amino)-4-(4-fluorophenyl)thiazole-5-carbonitrile]

- IC50 [1]: 25 nM
SMILES: CCc1nc2ccc(-c3ccc(CC(=O)N4CC(O)C4)cn3)cn2c1N(C)c1nc(-c2ccc(F)cc2)c(C#N)s1 [Example 7, 2-((2-ethyl-6-(5-(2-(3-hydroxyazetidin-1-yl)-2-oxoethyl)pyridin-2-yl)imidazo[1,2-a]pyridin-3-yl)(methyl)amino)-4-(4-fluorophenyl)thiazole-5-carbonitrile]

- IC50 [1]: 19 nM
SMILES: CCc1nc2ccc(-c3cnc(CC(=O)N4CC(CO)C4)cn3)cn2c1N(C)c1nc(-c2ccc(F)cc2)c(C#N)s1 [Example 12, 2-((2-ethyl-6-(5-(2-(3-(hydroxymethyl)azetidin-1-yl)-2-oxoethyl)pyrazin-2-yl)imidazo[1,2-a]pyridin-3-yl)(methyl)amino)-4-(4-fluorophenyl)thiazole-5-carbonitrile]

- IC50 [1]: 5.2 nM
SMILES: CCc1nc2ccc(-c3cnc(CC(=O)N4CC(O)C4)c(F)c3)cn2c1N(C)c1nc(-c2ccc(F)cc2)c(C#N)s1 [Example 3, 2-((2-ethyl-6-(5-fluoro-6-(2-(3-hydroxyazetidin-1-yl)-2-oxoethyl)pyridin-3-yl)imidazo[1,2-a]pyridin-3-yl)(methyl)amino)-4-(4-fluorophenyl)thiazole-5-carbonitrile]

- IC50 [1]: 28 nM
SMILES: CCc1nc2ccc(-c3cnc(C(C)(C)C(=O)N4CC(O)C4)cn3)cn2c1N(C)c1nc(-c2ccc(F)cc2)c(C#N)s1 [Example 9, 2-((2-ethyl-6-(5-(1-(3-hydroxyazetidin-1-yl)-2-methyl-1-oxopropan-2-yl)pyrazin-2-yl)imidazo[1,2-a]pyridin-3-yl)(methyl)amino)-4-(4-fluorophenyl)thiazole-5-carbonitrile]

- IC50 [1]: 11 nM
SMILES: CCN(c1nc(-c2ccc(F)cc2)c(C#N)s1)c1c2nc(-c3cnc(N4CC(CO)C4)nc3)ccc2nn1CC [Example 24, 2-(ethyl(2-ethyl-5-(2-(3-(hydroxymethyl)azetidin-1-yl)pyrimidin-5-yl)-2H-pyrazolo[4,3-b]pyridin-3-yl)amino)-4-(4-fluorophenyl)thiazole-5-carbonitrile]

- IC50 [1]: 17 nM
SMILES: CCc1nc2ccc(-c3cnc(N4CCCS4(=O)=O)cn3)cn2c1N(CC)c1nc(-c2ccc(F)cc2)c(C#N)s1 [Example 19, 2-((6-(5-(1,1-dioxidoisothiazolidin-2-yl)pyrazin-2-yl)-2-ethylimidazo[1,2-a]pyridin-3-yl)(ethyl)amino)-4-(4-fluorophenyl)thiazole-5-carbonitrile]

- IC50 [1]: 42 nM
SMILES: CCc1nc2ccc(-c3cnc(CC(=O)NCC4CCC(=O)N4)cn3)cn2c1N(C)c1nc(-c2ccc(F)cc2)c(C#N)s1 (stereo not drawn) [Example 14, 2-(5-(3-((5-cyano-4-(4-fluorophenyl)thiazol-2-yl)(methyl)amino)-2-ethylimidazo[1,2-a]pyridin-6-yl)pyrazin-2-yl)-N-((5-oxopyrrolidin-2-yl)methyl)acetamide]

- IC50 [1]: 29 nM
SMILES: CCc1nc2ccc(-c3ccc(CC(=O)N4CC(O)C4)nc3C)cn2c1N(C)c1nc(-c2ccc(F)cc2)c(C#N)s1 [Example 6, 2-((2-ethyl-6-(6-(2-(3-hydroxyazetidin-1-yl)-2-oxoethyl)-2-methylpyridin-3-yl)imidazo[1,2-a]pyridin-3-yl)(methyl)amino)-4-(4-fluorophenyl)thiazole-5-carbonitrile]

- IC50 [1]: 4.4 nM
SMILES: CCc1nc2ccc(-c3cnc(C(=O)N4CC(O)C4)cn3)cn2c1N(C)c1nc(-c2ccc(F)cc2)c(C#N)s1 [Example 8, 2-((2-ethyl-6-(5-(3-hydroxyazetidin-1-carbonyl)pyrazin-2-yl)imidazo[1,2-a]pyridin-3-yl)(methyl)amino)-4-(4-fluorophenyl)thiazole-5-carbonitrile]

SMILES: O=P1(N(CCCl)CCCl)NCCCO1 (stereo not drawn) [Cyclophosphamide monohydrate]
- % binuclear cells containing micronucleus [2, 4]: 20.8%

- Cl_F_pred ([3]; IV 2 mg/kg): 7.5 mL/min/kg
- Cl_F_pred ([3]; PO 10 mg/kg): 65.5 mL/min/kg
- F ([3]; PO 10 mg/kg vs IV 2 mg/kg): 12%
- AUC(0-inf) ([3]; SD, plasma, IV 2 mg/kg): 4460 ng·h/mL
- AUC(0-t) ([3]; SD, plasma, IV 2 mg/kg): 4460 ng·h/mL
- Cmax ([3]; SD, plasma, IV 2 mg/kg): 8340 ng/mL
- half-life ([3]; SD, plasma, IV 2 mg/kg): 1.5 h
- AUC(0-inf) ([3]; SD, plasma, PO 10 mg/kg): 2700 ng·h/mL
- AUC(0-t) ([3]; SD, plasma, PO 10 mg/kg): 2680 ng·h/mL
- Cmax ([3]; SD, plasma, PO 10 mg/kg): 512 ng/mL
- Tmax ([3]; SD, plasma, PO 10 mg/kg): 1 h
- half-life ([3]; SD, plasma, PO 10 mg/kg): 4 h
SMILES: CCc1nc2c(C)cc(N3CCN(CC(=O)N4CC(O)C4)CC3)cn2c1N(C)c1nc(-c2ccc(F)cc2)c(C#N)s1 [GLPG1690]
- % binuclear cells containing micronucleus ([2]; 3-hour administration with metabolic activation, 2 µg/ml): 1.55%
- % binuclear cells containing micronucleus [2, 4]: 1.65%
- % binuclear cells containing micronucleus ([2]; 3-hour administration with metabolic activation, 10 µg/ml): 1.70%
- % binuclear cells containing micronucleus ([2]; 3-hour administration with metabolic activation, 30 µg/ml): 1.85%
- % binuclear cells containing micronucleus ([2]; 3-hour administration without metabolic activation, 2 µg/ml): 1.90%
- % binuclear cells containing micronucleus ([2]; 3-hour administration without metabolic activation, 5 µg/ml): 1.85%
- % binuclear cells containing micronucleus ([2]; 3-hour administration without metabolic activation, 10 µg/ml): 1.65%
- % binuclear cells containing micronucleus ([2]; 3-hour administration without metabolic activation, 30 µg/ml): 1.85%
- % binuclear cells containing micronucleus ([2]; 24-hour administration without metabolic activation, 2 µg/ml): 1.95%
- % binuclear cells containing micronucleus ([2]; 24-hour administration without metabolic activation, 4 µg/ml): 1.65%
- % binuclear cells containing micronucleus ([2]; 24-hour administration without metabolic activation, 6 µg/ml): 1.60%
- % binuclear cells containing micronucleus ([2]; 24-hour administration without metabolic activation, 7 µg/ml): 4.85%
- % binuclear cells containing micronucleus ([2]; 24-hour administration without metabolic activation, 8 µg/ml): 14.4%
- potential to induce micronucleus formation in CHO-WBL cells ([2]; overall verdict over all administration series): positive
